Where “and” joins values, the source holds several entries; their conditions need not be identical. Equal values may be shown once. Read-outs that look alike come from different tables or passages of the source.
Key:
SARS2 = format: cell-based, SARS-CoV-2; details: for Percentage Inhibition Average 1 μM / Screening data (Relative infection to DMSO controls) Average 1 μM: SARS2, 1 μM; for Screening data (Relative infection to DMSO controls) Average 1 μM / Screening data (Relative infection to DMSO controls) Average 5 μM / Screening data (Relative infection to DMSO controls) Average 10 μM / Screening data (Relative infection to DMSO controls) Average 25 μM / Screening data (Relative infection to DMSO controls) Average 50 μM / Average (relative infection to DMSO over the 5 tested concentrations): 100=DMSO control; for Percentage Inhibition Average 5 μM / Screening data (Relative infection to DMSO controls) Average 5 μM: SARS2, 5 μM; for Percentage Inhibition Average 10 μM / Screening data (Relative infection to DMSO controls) Average 10 μM: SARS2, 10 μM; for Percentage Inhibition Average 25 μM / Screening data (Relative infection to DMSO controls) Average 25 μM: SARS2, 25 μM; for Percentage Inhibition Average 50 μM / Screening data (Relative infection to DMSO controls) Average 50 μM: SARS2, 50 μM; for Average (relative infection to DMSO over the 5 tested concentrations): SARS2, average over 1 to 50 uM; for Infection Data, Percentage Infection Relative to Appropriate DMSO Control with Avg Background Subtraction: duplicate wells, listed as SICLS61; for Infection Data, Average, Mean (Percentage Infection Relative to Appropriate DMSO Control): average of Exp 1 and Exp 2, n=4
cells (nuclei count) = details: for Relative cell count to DMSO controls, Average 1 μM / Relative cell count to DMSO controls, Average 5 μM / Relative cell count to DMSO controls, Average 10 μM / Relative cell count to DMSO controls, Average 25 μM / Relative cell count to DMSO controls, Average 50 μM: toxicity data, 100=DMSO control; for Relative cell count to DMSO controls, Average (for correlation analysis): average value over the 5 tested concentrations (1 to 50 uM); for Toxicity Data, Average, Mean (percentage relative to appropriate DMSO control): average of Exp 1 and Exp 2, n=4

In the case of `COc1ccc(-c2[nH]ncc2C(=O)NCC2CCC2)cc1OC` [SILCS54], the “Percentage Inhibition Average 1 μM” value (SARS2) is reported as 0.61%, the “Screening data (Relative infection to DMSO controls) Average 1 μM” value (SARS2) is reported as 99.39 and the “Percentage Inhibition Average 5 μM” value (SARS2) is reported as 7.12%. For the same compound, the “Screening data (Relative infection to DMSO controls) Average 5 μM” value (SARS2) was 92.88, the “Percentage Inhibition Average 10 μM” value (SARS2) was 10.70% and the “Screening data (Relative infection to DMSO controls) Average 10 μM” value (SARS2) was 89.30. For the same compound, the “Percentage Inhibition Average 25 μM” value (SARS2) was −5.10%, the “Screening data (Relative infection to DMSO controls) Average 25 μM” value (SARS2) was 105.10 and the “Percentage Inhibition Average 50 μM” value (SARS2) was −13.08%. For the same compound, the “Screening data (Relative infection to DMSO controls) Average 50 μM” value (SARS2) was 113.08, the “Average (relative infection to DMSO over the 5 tested concentrations)” value (SARS2) was 99.95 and the “Relative cell count to DMSO controls, Average 1 μM” value (“Relative cell count … Average 1 μM” below) (cells (nuclei count)) was 100.58. For the same compound, the “Relative cell count to DMSO controls, Average 5 μM” value (“Relative cell count … Average 5 μM” below) (cells (nuclei count)) was 101.65, the “Relative cell count to DMSO controls, Average 10 μM” value (“Relative cell count … Average 10 μM” below) (cells (nuclei count)) was 100.51 and the “Relative cell count to DMSO controls, Average 25 μM” value (“Relative cell count … Average 25 μM” for short) (cells (nuclei count)) was 99.71. For the same compound, the “Relative cell count to DMSO controls, Average 50 μM” value (from here on “Relative cell count … Average 50 μM”) (cells (nuclei count)) was 88.29 and the “Relative cell count to DMSO controls, Average (for correlation analysis)” value (from here on “Relative cell count … (for correlation analysis)”) (cells (nuclei count)) was 98.15.

With `COCC1=C(C(=O)NCC2CCC2)C(c2cccs2)NC(=O)N1` (centres unmarked) [SILCS56] the “Percentage Inhibition Average 1 μM” value (SARS2) was 31.59%, the “Screening data (Relative infection to DMSO controls) Average 1 μM” value (SARS2) was 68.41 and the “Percentage Inhibition Average 5 μM” value (SARS2) was 44.15%. The “Screening data (Relative infection to DMSO controls) Average 5 μM” value (SARS2) was 55.85, the “Percentage Inhibition Average 10 μM” value (SARS2) was 29.24% and the “Screening data (Relative infection to DMSO controls) Average 10 μM” value (SARS2) was 70.76. For the same compound, the “Percentage Inhibition Average 25 μM” value (SARS2) was 2.27%, the “Screening data (Relative infection to DMSO controls) Average 25 μM” value (SARS2) was 97.73 and the “Percentage Inhibition Average 50 μM” value (SARS2) was −21.04%. The “Screening data (Relative infection to DMSO controls) Average 50 μM” value (SARS2) was 121.04, the “Average (relative infection to DMSO over the 5 tested concentrations)” value (SARS2) was 82.76 and the “Relative cell count … Average 1 μM” value (cells (nuclei count)) was 120.34. For the same compound, the “Relative cell count … Average 5 μM” value (cells (nuclei count)) was 119.22, the “Relative cell count … Average 10 μM” value (cells (nuclei count)) was 119.65 and the “Relative cell count … Average 25 μM” value (cells (nuclei count)) was 104.41. The “Relative cell count … Average 50 μM” value (cells (nuclei count)) was 89.59 and the “Relative cell count … (for correlation analysis)” value (cells (nuclei count)) was 110.64.

In the case of `COc1ccc(C2NC(=O)NC(C)=C2C(=O)NC2CCCCCC2)cc1OC` (centres unmarked) [SILCS59], the “Percentage Inhibition Average 1 μM” value (SARS2) is reported as 29.42%, the “Screening data (Relative infection to DMSO controls) Average 1 μM” value (SARS2) is reported as 70.58 and the “Percentage Inhibition Average 5 μM” value (SARS2) is reported as 33.20%. The “Screening data (Relative infection to DMSO controls) Average 5 μM” value (SARS2) was 66.80, the “Percentage Inhibition Average 10 μM” value (SARS2) was 16.88% and the “Screening data (Relative infection to DMSO controls) Average 10 μM” value (SARS2) was 83.12. For the same compound, the “Percentage Inhibition Average 25 μM” value (SARS2) was −8.59%, the “Screening data (Relative infection to DMSO controls) Average 25 μM” value (SARS2) was 108.59 and the “Percentage Inhibition Average 50 μM” value (SARS2) was −28.37%. The “Screening data (Relative infection to DMSO controls) Average 50 μM” value (SARS2) was 128.37, the “Average (relative infection to DMSO over the 5 tested concentrations)” value (SARS2) was 91.49 and the “Relative cell count … Average 1 μM” value (cells (nuclei count)) was 115.37. For the same compound, the “Relative cell count … Average 5 μM” value (cells (nuclei count)) was 119.78, the “Relative cell count … Average 10 μM” value (cells (nuclei count)) was 116.3 and the “Relative cell count … Average 25 μM” value (cells (nuclei count)) was 100.03. The “Relative cell count … Average 50 μM” value (cells (nuclei count)) was 86.44 and the “Relative cell count … (for correlation analysis)” value (cells (nuclei count)) was 107.58.

With `COc1ccc(-c2[nH]ncc2C(=O)NC2CCCCCC2)cc1OC` [SILCS60] the “Percentage Inhibition Average 1 μM” value (SARS2) was 20.62%, the “Screening data (Relative infection to DMSO controls) Average 1 μM” value (SARS2) was 79.38 and the “Percentage Inhibition Average 5 μM” value (SARS2) was 26.35%. For the same compound, the “Screening data (Relative infection to DMSO controls) Average 5 μM” value (SARS2) was 73.65, the “Percentage Inhibition Average 10 μM” value (SARS2) was 26.47% and the “Screening data (Relative infection to DMSO controls) Average 10 μM” value (SARS2) was 73.53. For the same compound, the “Percentage Inhibition Average 25 μM” value (SARS2) was 1.46%, the “Screening data (Relative infection to DMSO controls) Average 25 μM” value (SARS2) was 98.54 and the “Percentage Inhibition Average 50 μM” value (SARS2) was −22.52%. For the same compound, the “Screening data (Relative infection to DMSO controls) Average 50 μM” value (SARS2) was 122.52, the “Average (relative infection to DMSO over the 5 tested concentrations)” value (SARS2) was 89.52 and the “Relative cell count … Average 1 μM” value (cells (nuclei count)) was 111.59. The “Relative cell count … Average 5 μM” value (cells (nuclei count)) was 110.17, the “Relative cell count … Average 10 μM” value (cells (nuclei count)) was 109.31 and the “Relative cell count … Average 25 μM” value (cells (nuclei count)) was 96.61. The “Relative cell count … Average 50 μM” value (cells (nuclei count)) was 85.19 and the “Relative cell count … (for correlation analysis)” value (cells (nuclei count)) was 102.57.

For `CC1=C(C(=O)NC2CCCCCC2)C(c2cccs2)NC(=O)N1` (centres unmarked) [SILCS61], the “Infection Data, Percentage Infection Relative to Appropriate DMSO Control with Avg Background Subtraction” value (SARS2; 1 uM, Exp 1 (SMW506)) was 73.61% and 82.18%, the “Infection Data, Percentage Infection Relative to Appropriate DMSO Control with Avg Background Subtraction” value (SARS2; 1 uM, Exp 2 (SMW492), SILCS 61-66 and 67-72 plates) was 57.97% and 58.62% and the “Infection Data, Average, Mean (Percentage Infection Relative to Appropriate DMSO Control)” value (SARS2; 1 uM) was 68.10%. For the same compound, the “Infection Data, Percentage Infection Relative to Appropriate DMSO Control with Avg Background Subtraction” value (SARS2; 5 uM, Exp 1 (SMW506)) was 41.43% and 63.29%, the “Infection Data, Percentage Infection Relative to Appropriate DMSO Control with Avg Background Subtraction” value (SARS2; 5 uM, Exp 2 (SMW492), SILCS 61-66 and 67-72 plates) was 38.94% and 52.11% and the “Infection Data, Average, Mean (Percentage Infection Relative to Appropriate DMSO Control)” value (SARS2; 5 uM) was 48.94%. The “Infection Data, Percentage Infection Relative to Appropriate DMSO Control with Avg Background Subtraction” value (SARS2; 10 uM, Exp 1 (SMW506)) was 73.81% and 87.85%, the “Infection Data, Percentage Infection Relative to Appropriate DMSO Control with Avg Background Subtraction” value (SARS2; 10 uM, Exp 2 (SMW492), SILCS 61-66 and 67-72 plates) was 33.45% and 32.58% and the “Infection Data, Average, Mean (Percentage Infection Relative to Appropriate DMSO Control)” value (SARS2; 10 uM) was 56.92%. For the same compound, the “Infection Data, Percentage Infection Relative to Appropriate DMSO Control with Avg Background Subtraction” value (SARS2; 25 uM, Exp 1 (SMW506)) was 51.60% and 90.77%, the “Infection Data, Average, Mean (Percentage Infection Relative to Appropriate DMSO Control)” value (SARS2; 25 uM) was 43.41% and the “Infection Data, Percentage Infection Relative to Appropriate DMSO Control with Avg Background Subtraction” value (SARS2; 50 uM, Exp 1 (SMW506)) was −4.48% and −4.80%. The “Infection Data, Percentage Infection Relative to Appropriate DMSO Control with Avg Background Subtraction” value (SARS2; 50 uM, Exp 2 (SMW492), SILCS 61-66 and 67-72 plates) was 11.69% and 10.06%, the “Infection Data, Average, Mean (Percentage Infection Relative to Appropriate DMSO Control)” value (SARS2; 50 uM) was 3.12% and the “Percentage Inhibition Average 1 μM” value (SARS2) was 31.90%. The “Screening data (Relative infection to DMSO controls) Average 1 μM” value (SARS2) was 68.10, the “Percentage Inhibition Average 5 μM” value (SARS2) was 51.06% and the “Screening data (Relative infection to DMSO controls) Average 5 μM” value (SARS2) was 48.94. For the same compound, the “Percentage Inhibition Average 10 μM” value (SARS2) was 43.08%, the “Screening data (Relative infection to DMSO controls) Average 10 μM” value (SARS2) was 56.92 and the “Percentage Inhibition Average 25 μM” value (SARS2) was 56.59%. The “Screening data (Relative infection to DMSO controls) Average 25 μM” value (SARS2) was 43.41, the “Percentage Inhibition Average 50 μM” value (SARS2) was 96.88% and the “Screening data (Relative infection to DMSO controls) Average 50 μM” value (SARS2) was 3.12. For the same compound, the “Average (relative infection to DMSO over the 5 tested concentrations)” value (SARS2) was 44.10, the “Toxicity Data, Average, Mean (percentage relative to appropriate DMSO control)” value (cells (nuclei count); 1 uM) was 106.46% and the “Relative cell count … Average 1 μM” value (cells (nuclei count)) was 106.46. For the same compound, the “Toxicity Data, Average, Mean (percentage relative to appropriate DMSO control)” value (cells (nuclei count); 5 uM) was 110.71%, the “Relative cell count … Average 5 μM” value (cells (nuclei count)) was 110.71 and the “Toxicity Data, Average, Mean (percentage relative to appropriate DMSO control)” value (cells (nuclei count); 10 uM) was 107.86%. The “Relative cell count … Average 10 μM” value (cells (nuclei count)) was 107.86, the “Toxicity Data, Average, Mean (percentage relative to appropriate DMSO control)” value (cells (nuclei count); 25 uM) was 109.52% and the “Relative cell count … Average 25 μM” value (cells (nuclei count)) was 109.52. The “Toxicity Data, Average, Mean (percentage relative to appropriate DMSO control)” value (cells (nuclei count); 50 uM) was 104.46%, the “Relative cell count … Average 50 μM” value (cells (nuclei count)) was 104.46 and the “Relative cell count … (for correlation analysis)” value (cells (nuclei count)) was 107.80.
